Source: BigSolDB 2.1

Brc1c(Br)c(Br)c(Oc2c(Br)c(Br)c(Br)c(Br)c2Br)c(Br)c1Br
solubility (mole fraction)
Settings | in THF | in acetone | in ethyl acetate | in limonene | in toluene
283 K | 0.00449 | 4.4e-05 | 0.000133 | 0.00162 | 0.00274
293 K | 0.00524 | 6e-05 | 0.000173 | 0.00242 | 0.00362
303 K | 0.00607 | 9.1e-05 | 0.000252 | 0.00282 | 0.0052
313 K | 0.00695 | 0.000119 | 0.000346 | 0.00397 | 0.00651
323 K | 0.0085 | 0.000145 | 0.000455 | 0.00485 | 0.00771
